In patent US20230271983A1, “FUNCTIONALIZED ISONITRILES AND PRODUCTS, PREPARATION AND USES THEREOF” (UNIVERSIDADE DE SANTIAGO DE COMPOSTELA, priority 2020, published 2023) one finds Ki and inhibition data, which are given here for 9 molecules.

Each structure is given as a SMILES string. pKi: −log10 of the molar value.

One test has as its target T1, Dopamine D2 receptor (Homo sapiens, UniProt P14416).
T1 construct: expressed in transfected cells; host or cells: CHO-D2 #S20 (membranes prepared in Biofarma laboratory)
Briefly: Dopamine D2 receptor competition binding, [3H]-Spiperone, CHO-D2 membranes. Particulars: 0.15 nM [3H]-Spiperone. Here is the method:
(§1) was evaluated in vitro using radioligand binding assays following a previously described protocol (J. Med. Chem., 2020, 63, 613-620, Eur. J. Med. Chem., 2019, 180, 673-689). Dopamine D2 receptor competition binding experiments were carried out in a polypropilene 96-well plate. In each well was incubated 10 μg of membranes from CHO-D2 #S20 cell line prepared in Biofarma laboratory (Lot: A002/22-07-2015, protein concentration=4185 μg/ml), 0.15 nM [3H]-Spiperone (80.2 Ci/mmol, 1 mCi/ml, Perkin Elmer NET1187001MC) and compounds studied and standard. Non-specific binding was determined in the presence of Sulpiride 10 μM (Sigma S112). The reaction mixture (Vt: 250 μl/well) was incubated at 25° C. for 120 min, 200 μL was transferred to GF/C 96-well plate (Millipore, Madrid, Spain) pretreated with 0.5% of PEI and treated with binding buffer (Tris-HCl 50 mM, EDTA 1 mM, MgCl2 5 mM, KCl 5 mM, NaCl 120 mM, pH=7.4), after was filtered and washed four times with 250 μl wash buffer (Tris-HCl 50 mM, NaCl 0.9%, pH=7.4), before measuring in a microplate beta scintillation counter (Microbeta Trilux, PerkinElmer). Dopamine D3 receptor competition binding experiments were carried out in a polypropilene 96-well plate. In each well was incubated 2 μg of membranes from D3 cell line (Perkin Elmer, ES-173M400UA, protein concentration=1000 μg/ml), 1 nM [3H]-Spiperone (68 Ci/mmol, 1 mCi/ml, Perkin Elmer NET1187001MC) and compounds studied and standard. Non-specific binding was determined in the presence of Haloperidol 1 μM (Sigma H1512). The reaction mixture (Vt: 250 μl/well) was incubated at 25° C. for 60 min, 200 μL was transferred to GF/C 96-well plate (Millipore, Madrid, Spain) pretreated with 0.5% of PEI and treated with binding buffer (Tris-HCl 50 mM, MgCl2 5 mM, pH=7.4), after was filtered and washed four times with 250 μl wash buffer (Tris-HCl 50 mM, pH=7.4), before measuring in a microplate beta scintillation counter (Microbeta Trilux, PerkinElmer, Madrid, Spain).

The target in another test is T2, Dopamine D3 receptor (Homo sapiens, UniProt P35462).
T2 construct: purchased Perkin Elmer ES-173M400UA
Briefly: Dopamine D3 receptor competition binding, [3H]-Spiperone. As to conditions: 1 nM [3H]-Spiperone. Here is the method: as §1

A further test concerns the target T3, human A2AAR (Homo sapiens, UniProt P29274).
T3 construct: expressed in transfected cells; host or cells: HeLa
Briefly: A2AAR radioligand competition binding, [3H]ZM241385, HeLa cell membranes. Particulars: for inhibition at 1 µM: read-out: A2A specific binding inhibition percentage; for pKi: 3 nM [3H]ZM241385, 25° C. 30 min, read-out: A2A Ki. The text has this: (§2) was evaluate in vitro using radioligand binding assays following a previously described protocol (J. Med. Chem. 2019, 62, 9315-9330). Human ARs were expressed in transfected cell lines [e.g. chinese hamster ovary (CHO) cells (A1AR), human epithelial carcinoma (HeLa) cells (A2AAR and A3AR) and human embryonic kidney (HEK-293) cells (A2BAR)]. [^3H]DPCPX for A1AR and A2BAR, [^3H]NECA for A3AR, and [^3H]ZM241385 for A2AAR were employed as radioligands. […] Using Prism 5.0 software (GraphPad, San Diego, Calif.) K; values were acquired by fitting the data by non-linear regression. Results are the average of three experiments, each of them performed in duplicate. Radioligand binding competition assays were performed in vitro using human ARs expressed in transfected HeLa [hA2AAR (9 pmol/mg protein) and hA3AR (3 pmol/mg protein)], HEK-293 [hA2BAR (1.5 pmol/mg protein)] and CHO [hA1AR (1.5 pmol/mg protein)] cells. A brief description is given below. A1AR competition binding experiments were carried out in membranes from CHO-A, cells labelled with 1 nM [^3H]DPCPX (KD=0.7 nM). Non-specific binding was determined in the presence of 10 μM R-PIA. The reaction mixture was incubated at 25° C. for 60 min. A2AAR competition binding experiments were carried out in membranes from HeLa-A2A cells labelled with 3 nM [^3H]ZM241385 (KD=2 nM). Non-specific binding was determined in the presence of 50 μM NECA. The reaction mixture was incubated at 25° C. for 30 min. […] Non-specific binding was determined in the presence of 400 μM NECA. The reaction mixture was incubated at 25° C. for 30 min. A3AR competition binding experiments were carried out in membranes from HeLa-A3 cells labelled with 10 nM [^3H]NECA (KD=8.7 nM). Non-specific binding was determined in the presence of 100 μM R-PIA. The reaction mixture was incubated at 25° C. for 180 min. After the incubation time, membranes were washed and filtered, radioactivity was detected in a Microbeta Trilux reader (PerkinElmer).
(§3) The adenosinergic (affinity and selectivity) profile of several compounds of the invention was evaluated according to the above examples.

The target of a further test is T4, human A3AR (Homo sapiens, UniProt P0DMS8).
T4 construct: expressed in transfected cells; host or cells: HeLa
T4 sequence (P0DMS8 1-318): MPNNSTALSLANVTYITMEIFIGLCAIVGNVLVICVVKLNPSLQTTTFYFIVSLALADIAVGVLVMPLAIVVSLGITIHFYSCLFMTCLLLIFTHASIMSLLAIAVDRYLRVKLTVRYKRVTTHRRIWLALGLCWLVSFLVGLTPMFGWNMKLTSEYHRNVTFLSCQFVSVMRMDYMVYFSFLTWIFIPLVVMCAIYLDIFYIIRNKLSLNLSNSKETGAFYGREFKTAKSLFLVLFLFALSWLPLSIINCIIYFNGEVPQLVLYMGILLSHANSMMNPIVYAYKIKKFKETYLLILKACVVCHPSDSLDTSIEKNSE
Put plainly: A3AR radioligand competition binding, [3H]NECA, HeLa cell membranes. As to conditions: for inhibition at 1 µM: read-out: A3 specific binding inhibition percentage; for pKi: 10 nM [3H]NECA, 25° C. 180 min, read-out: A3 Ki.
Text: as §2, §3

Another test concerns the target T5, human A1AR (Homo sapiens, UniProt P30542).
T5 construct: expressed in transfected cells; host or cells: CHO
T5 sequence (P30542 1-326): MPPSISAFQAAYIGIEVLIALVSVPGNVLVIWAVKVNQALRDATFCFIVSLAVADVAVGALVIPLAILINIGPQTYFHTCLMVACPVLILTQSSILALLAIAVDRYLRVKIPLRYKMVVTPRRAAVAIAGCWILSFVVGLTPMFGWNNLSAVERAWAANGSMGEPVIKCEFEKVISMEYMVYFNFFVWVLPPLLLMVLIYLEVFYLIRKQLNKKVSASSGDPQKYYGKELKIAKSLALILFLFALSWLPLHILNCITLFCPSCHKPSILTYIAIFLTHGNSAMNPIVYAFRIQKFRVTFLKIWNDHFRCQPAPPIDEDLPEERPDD
Put plainly: A1AR radioligand competition binding, [3H]DPCPX, CHO cell membranes. As to conditions: for inhibition at 1 µM: read-out: A1 specific binding inhibition percentage; for pKi: 1 nM [3H]DPCPX, 25° C. 60 min, read-out: A1 Ki.
Text: as §2, §3

A further test has as its target T6, human A2BAR (Homo sapiens, UniProt P29275).
T6 construct: host or cells: HEK-293
T6 sequence (P29275 1-332): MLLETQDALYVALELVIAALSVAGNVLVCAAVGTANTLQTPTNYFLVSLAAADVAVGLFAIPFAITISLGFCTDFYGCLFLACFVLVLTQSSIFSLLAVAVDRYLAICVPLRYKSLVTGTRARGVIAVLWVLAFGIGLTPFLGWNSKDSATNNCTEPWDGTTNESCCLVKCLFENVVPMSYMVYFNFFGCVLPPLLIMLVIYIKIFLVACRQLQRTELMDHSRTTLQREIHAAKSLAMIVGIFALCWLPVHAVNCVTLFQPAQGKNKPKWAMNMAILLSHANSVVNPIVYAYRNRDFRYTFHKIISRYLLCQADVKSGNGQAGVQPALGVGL
Briefly: A2BAR radioligand competition binding, [3H]DPCPX, HEK-293 cell membranes. As to conditions: for pKi: 25 nM [3H]DPCPX, 25° C. 30 min, read-out: A2B Ki; for inhibition at 1 µM: read-out: A2B specific binding inhibition percentage.
Text: as §2, §3

The target of a further test is T7, D4 (Homo sapiens, UniProt P21917).
T7 sequence (P21917 1-419): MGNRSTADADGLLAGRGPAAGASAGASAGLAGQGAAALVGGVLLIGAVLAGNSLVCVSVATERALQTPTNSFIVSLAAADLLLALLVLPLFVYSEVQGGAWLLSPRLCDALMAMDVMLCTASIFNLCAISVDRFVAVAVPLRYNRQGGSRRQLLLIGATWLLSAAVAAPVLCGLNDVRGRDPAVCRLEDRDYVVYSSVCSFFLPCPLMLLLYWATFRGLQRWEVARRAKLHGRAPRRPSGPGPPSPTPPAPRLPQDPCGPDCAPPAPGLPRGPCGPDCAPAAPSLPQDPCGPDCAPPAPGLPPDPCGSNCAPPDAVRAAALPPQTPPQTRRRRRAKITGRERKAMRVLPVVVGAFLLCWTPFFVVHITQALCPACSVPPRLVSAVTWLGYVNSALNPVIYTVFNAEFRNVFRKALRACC
Briefly: Dopamine D4 radioligand binding.

T1 sequence (P14416 whole entry, species assumed): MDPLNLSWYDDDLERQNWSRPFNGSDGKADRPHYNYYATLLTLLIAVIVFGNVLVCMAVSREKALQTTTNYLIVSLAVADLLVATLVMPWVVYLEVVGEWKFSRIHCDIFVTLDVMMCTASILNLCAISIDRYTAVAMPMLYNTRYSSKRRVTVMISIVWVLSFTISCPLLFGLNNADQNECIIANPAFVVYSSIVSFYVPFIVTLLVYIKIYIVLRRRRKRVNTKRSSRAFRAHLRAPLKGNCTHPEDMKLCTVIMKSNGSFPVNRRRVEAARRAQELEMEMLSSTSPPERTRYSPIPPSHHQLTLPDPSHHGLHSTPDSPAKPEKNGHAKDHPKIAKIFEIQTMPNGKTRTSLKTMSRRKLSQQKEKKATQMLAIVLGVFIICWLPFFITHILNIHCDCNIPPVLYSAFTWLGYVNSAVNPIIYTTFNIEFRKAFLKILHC
T3 sequence (P29274 whole entry): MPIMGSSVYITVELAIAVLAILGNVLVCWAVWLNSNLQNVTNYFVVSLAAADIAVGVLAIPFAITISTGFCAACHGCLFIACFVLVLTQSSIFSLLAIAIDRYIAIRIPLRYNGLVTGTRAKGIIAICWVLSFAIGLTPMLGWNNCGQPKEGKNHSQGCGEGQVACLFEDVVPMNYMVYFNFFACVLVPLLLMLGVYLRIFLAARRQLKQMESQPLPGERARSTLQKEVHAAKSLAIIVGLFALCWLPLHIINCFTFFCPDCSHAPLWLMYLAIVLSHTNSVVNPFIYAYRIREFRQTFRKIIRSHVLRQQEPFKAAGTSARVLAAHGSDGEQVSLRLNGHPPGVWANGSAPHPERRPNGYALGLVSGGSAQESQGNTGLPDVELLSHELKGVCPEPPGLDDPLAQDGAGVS
T2 sequence (P35462 whole entry): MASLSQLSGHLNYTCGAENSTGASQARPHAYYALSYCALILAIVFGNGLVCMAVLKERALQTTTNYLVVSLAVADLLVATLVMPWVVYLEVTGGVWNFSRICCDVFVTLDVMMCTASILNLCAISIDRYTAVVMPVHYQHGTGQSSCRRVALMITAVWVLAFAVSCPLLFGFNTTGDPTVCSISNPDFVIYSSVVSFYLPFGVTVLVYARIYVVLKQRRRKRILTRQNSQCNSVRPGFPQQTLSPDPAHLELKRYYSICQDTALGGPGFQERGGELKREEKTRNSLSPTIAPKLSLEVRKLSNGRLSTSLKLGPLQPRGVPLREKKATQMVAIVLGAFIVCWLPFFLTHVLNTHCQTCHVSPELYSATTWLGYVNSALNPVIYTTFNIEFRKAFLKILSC

`CN(CC(=O)NCCCOCCOCCOCCCNC(=O)CN(C)C(=O)COc1ccc(-c2ccc3n2[B-](F)(F)[N+]2=C(c4cccs4)C=CC2=C3)cc1)C(=O)CCC(=O)Nc1ccc(CCN2CN(c3ccccc3)C3(CCN(CCCC(=O)c4ccc(F)cc4)CC3)C2=O)cc1`: the pKi was 8.97 on Dopamine D2 receptor and 6.83 on Dopamine D3 receptor.
`CCCn1c(=O)c2[nH]c(-c3ccc(OCC(=O)NCC(=O)N4CCN(C(C)(C)C(=O)NCCCOCCOCCOCCCNC(=O)CN(C)C(=O)COc5ccc(C6=[N+]7C(=Cc8ccc(-c9cccs9)n8[B-]7(F)F)C=C6)cc5)CC4)cc3)cc2n(C)c1=O`: the inhibition at 1 µM turned out to be 1% on human A2AAR, 37% on human A3AR and 46% on human A1AR. The negative logarithm of the Ki (pKi) at human A2BAR is 6.60.
For `CN(CC(=O)NCCOCCOCCNC(=O)CN(C)C(=O)CC(C)(C)CC(=O)Nc1c(F)cc(C(=O)Nc2nccs2)cc1F)C(=O)CCCCCN1/C(=C/C=C/C=C/C2=[N+](C)c3ccccc3C2(C)C)C(C)(C)c2ccccc21`, the pKi on human A2AAR is 6.38. Moreover, the inhibition at 1 µM at human A3AR is 54%; on human A1AR, 33%; at human A2BAR, 59%.
With `[C-]#[N+]CCCOCCOCCOCCCNC(=O)CN(C)C(=O)/C=C/c1ccc2sc(C(=O)NCCCCN3CCN(c4cccc(Cl)c4Cl)CC3)cc2c1`, the pKi at D4 is 6.30; on Dopamine D2 receptor, 8.96; at Dopamine D3 receptor, 9.00.
On to `COc1ccc(-c2cc(NC(=O)COCC(=O)N(C)CC(=O)NCCOCCOCCOCCOCCNC(=O)CN(C)C(=O)CCCOc3ccc(CN4CCN(c5ccccc5OC)CC4)cc3OC)nc(-c3ccc(OC)cc3)n2)cc1`, for which the pKi on Dopamine D2 receptor was 7.52; at Dopamine D3 receptor, 5.59; at human A3AR, 8.00. For the same molecule, the figures for the inhibition at 1 µM at human A2AAR, on human A1AR and at human A2BAR were 5%, 8% and 4%, respectively.
Take `[C-]#[N+]CCCOCCOCCOCCCNC(=O)CN1CCN(C(=O)CNC(=O)COc2ccc(-c3cc4c([nH]3)c(=O)n(CCC)c(=O)n4C)cc2)CC1`: the inhibition at 1 µM on human A2AAR is 13%. For the same molecule, the negative logarithm of the Ki (pKi) was 6.71 at human A3AR, 7.00 at human A1AR and 7.10 at human A2BAR.
The corresponding values for `CCCn1c(=O)c2[nH]c(-c3ccc(OCC(=O)NCC(=O)N4CCN(CC(=O)NCCCOCCOCCOCCCNC(=O)CN(C)C(=O)COc5ccc(C6=[N+]7C(=Cc8ccc(-c9cccs9)n8[B-]7(F)F)C=C6)cc5)CC4)cc3)cc2n(C)c1=O` are 23%, 7.37, 6.33 and 7.40.
As to `CN(CC(=O)NCCCOCCOCCOCCCNC(=O)CN(C)C(=O)CC(C)(C)CC(=O)Nc1c(F)cc(C(=O)Nc2nccs2)cc1F)C(=O)CCCCCN1/C(=C/C=C/C=C/C2=[N+](C)c3ccccc3C2(C)C)C(C)(C)c2ccccc21`, at human A2AAR, the pKi was 8.08. Also, the inhibition at 1 µM came to 37% at human A3AR, 31% at human A1AR and 18% at human A2BAR.
Consider `COc1ccc(-c2cc(NC(=O)CCC(=O)N(C)CC(=O)NCCCOCCOCCOCCCNC(=O)CN(C)C(=O)COc3ccc(-c4ccc5n4[B-](F)(F)[N+]4=C(c6cccs6)C=CC4=C5)cc3)nc(-c3ccc(OC)cc3)n2)cc1`, for which the pKi on human A3AR was 8.21.
